Experimental data as given in the NIST ThermoML archive (doi:10.1021/acs.jced.8b00552).
Numbers after ± are expanded uncertainties.

How the values were obtained:
[1] = refractive index (Na D-line) (dimensionless); conditions: 293.15 K; 101.33 kPa; Liquid; Standard Abbe refractometry
[2] = Liquid, Ebulliometric method (Recirculating still)

Row | refractive index [1] | Compound | vapor or sublimation pressure ([2]; 332.65 K) [kPa] | vapor or sublimation pressure ([2]; 342.63 K) [kPa] | vapor or sublimation pressure ([2]; 349.06 K) [kPa] | vapor or sublimation pressure ([2]; 333.65 K) [kPa] | vapor or sublimation pressure ([2]; 343.55 K) [kPa] | vapor or sublimation pressure ([2]; 348.55 K) [kPa]
1 | 1.3957 ± 0.002 | CC(C)CO [2-methyl-1-propanol] | 12.17 ± 0.63 | 20.07 ± 0.63 | 26.53 ± 0.64 | – | – | –
2 | 1.41 ± 0.002 | CCCCCO [pentan-1-ol] | – | – | – | 3.43 ± 0.62 | 5.9 ± 0.62 | 7.67 ± 0.62

Row | Compound | refractive index [1] | vapor or sublimation pressure ([2]; 332.65 K) [kPa] | vapor or sublimation pressure ([2]; 342.63 K) [kPa] | vapor or sublimation pressure ([2]; 349.06 K) [kPa] | vapor or sublimation pressure ([2]; 333.65 K) [kPa] | vapor or sublimation pressure ([2]; 343.55 K) [kPa] | vapor or sublimation pressure ([2]; 348.55 K) [kPa]
3 | CCC(C)=O [butanone] | 1.3791 ± 0.002 | 51.76 ± 0.63 | 72.71 ± 0.7 | 90.1 ± 0.79 | 52.42 ± 0.63 | 74.79 ± 0.7 | 88.29 ± 0.79
